A short description of one data set: Plasma stability (mouse). It is filed as in vitro ADME. As to conditions: pooled plasma. The protocol:
(§1) Incubations of test compound (1 μM initial concentration, n=2) were carried out with pooled plasma or BSA (45 mg/mL in 0.1 M phosphate buffered saline pH 7.4). The incubations were performed at 37° C. Samples (50 μL) were obtained from the incubation at 0, 10, 30, 120, 240, 360 and 1440 min, and added to 150 μL of acetonitrile containing carbamazepine as analytical internal standard to terminate the reaction. Samples were centrifuged and the supernatant fractions analyzed using LC-MS/MS.
(§2) For all incubations, the instrument response (i.e. chromatographic peak area or peak height, normalized by internal standard), at each time-point were referenced to the zero time-point samples (as 100%) in order to determine the percentage of compound remaining at that time-point. Plots of the natural logarithm (Ln) of the percent of parent remaining for each compound, versus time, were used to determine the half-life in the incubation of interest.
(§3) Half-life values (t1/2) were calculated from the relationship: t1/2 (min)=−0.693/λ where λ was the slope of the Ln concentration versus time curve.

For data set [1], the system named is wild type MDCKII cell line. The data set can be described thus: Permeability in wild type MDCK monolayers. The note with it: MDCK study; in words. It is filed as in vitro ADME. The protocol: (§4) The MDR1-MDCKII and wild type MDCKII cell lines were cultured in accordance with the guidelines provided by Solvo Biotechnology. Both wild-type MDCK and MDR1-MDCK cells were seeded at a cell density of 2.3×10^5 cells/well into 24-well Transwell plates and cultured for three days to form monolayers. Test compound was loaded into the donor compartments of the Transwell plate (24-well) bearing MDR1-MDCK or wild type MDCK monolayers. Test compound was added to either the apical or basolateral chambers of the Transwell plate assembly at a concentration of 10 μM in Hanks' Balanced Salt Solution containing 25 mM HEPES (pH 7.4). Lucifer Yellow was added to the apical buffer in all wells and its permeation monitored to assess integrity of the cell layer. As Lucifer Yellow (LY) cannot freely permeate lipophilic barriers, a high degree of LY transport indicates poor integrity of the cell layer and wells with LY permeability >100 nm/s are rejected.

The nature of data set [2]: Permeability in wild type MDCK monolayers. In kind it is in vitro ADME. The note with it: dog; wild type MDCK, apical to basolateral, 10 μM, pH 7.4; read-out: MDCK-WT Papp A-B. How it is done: as §4
The nature of another data set: Plasma stability (human). In kind it is in vitro ADME. The note with it: pooled plasma. How it is done:
as §1, §2, §3

Data set [3] in a line: Liver microsomal stability (human). In kind it is in vitro ADME. The note with it: for metabolic stability in liver microsomal stability testing: human, in words; for microsomal CLint at 1 μM: pooled liver microsomes, pH 7.4, human liver microsomes, 0.25 mg protein/mL, NADPH, read-out: hLM Clint. How it is done: (§5) Incubations of test compound (1 μM initial concentration, n=2) were carried out with pooled hepatic liver microsomes (0.25 mg protein/mL in 0.1 M phosphate buffer pH7.4). NADPH (1 mM) was added to initiate the reactions. The incubations were performed at 37° C. Samples (100 μL) were taken from the incubation at 0, 5, 10, 20 and 40 min and added to 100 μL of acetonitrile containing carbamazepine as analytical internal standard, to terminate the reaction. Samples were centrifuged and the supernatant fractions analyzed using LC-MS/MS.
as §2, §3
For incubations in hepatic liver microsomes, the in vitro intrinsic clearance, Clint (μL/min/mg microsomal protein), was calculated using the following formula:
Clint=(0.693/t1/2 microsomal)*(ml incubation/mg microsomal protein)*(mg microsomal protein/g liver)*(g liver/kg body weight)

Data set [4] in a line: Liver microsomal stability (mouse). In kind it is in vitro ADME. The protocol: as §5, §2, §3
For incubations in hepatic liver microsomes, the in vitro intrinsic clearance, Clint (μL/min/mg microsomal protein), was calculated using the following formula: […]

Another data set addresses T1, P-glycoprotein (P-gp) (Homo sapiens, UniProt P08183).
T1 construct: host or cells: MDCKII (MDR1-MDCKII)
The data set can be described thus: Effective efflux ratio in MDCK-MDR1. In kind it is in vitro ADME. The note with it: for active efflux via P-gp: MDCK-MDR1 transfected cell line, in words; for MDCK-MDR1 EER: effective efflux ratio, 10 μM. How it is done: as §4
P-glycoprotein (P-gp) is one of the main efflux transporters in brain; the potential for compound 1 and compound 2 to be effluxed by P-gp was assessed in an MDCK-MDR1 transfected cell line.

A further data set is described as follows: kinetic solubility assay. The note with it: for solubility in a kinetic solubility assay: in words; for Aq. Sol.: kinetic solubility. It is filed as physicochemical.
In the next data set the target is T2, human TG2 (Homo sapiens, UniProt P21980).
T2 sequence (P21980 1-687): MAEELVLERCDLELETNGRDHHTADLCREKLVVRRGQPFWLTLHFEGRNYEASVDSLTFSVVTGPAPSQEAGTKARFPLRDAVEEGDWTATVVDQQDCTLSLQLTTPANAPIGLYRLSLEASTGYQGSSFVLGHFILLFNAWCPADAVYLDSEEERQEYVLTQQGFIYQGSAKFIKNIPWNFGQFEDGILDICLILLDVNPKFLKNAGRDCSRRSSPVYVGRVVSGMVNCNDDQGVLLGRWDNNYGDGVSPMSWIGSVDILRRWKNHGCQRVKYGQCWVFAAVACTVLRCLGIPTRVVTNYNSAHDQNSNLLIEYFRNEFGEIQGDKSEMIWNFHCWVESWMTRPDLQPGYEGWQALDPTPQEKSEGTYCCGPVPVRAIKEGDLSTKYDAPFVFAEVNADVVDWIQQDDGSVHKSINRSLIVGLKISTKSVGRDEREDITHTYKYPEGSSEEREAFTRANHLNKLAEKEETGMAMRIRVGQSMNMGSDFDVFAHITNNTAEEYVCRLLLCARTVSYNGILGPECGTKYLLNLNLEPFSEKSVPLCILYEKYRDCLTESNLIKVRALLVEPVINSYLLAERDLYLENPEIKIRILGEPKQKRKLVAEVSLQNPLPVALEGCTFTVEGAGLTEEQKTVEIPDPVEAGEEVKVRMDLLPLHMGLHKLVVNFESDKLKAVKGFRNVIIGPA
Nature of the data set: fluorescent screening assay for human TG2. It is filed as biochemical. The protocol:
The fluorescent screening assay for human TG2 was performed as described herein: Assay conditions were 20 nM TG2, 8 μM N,N-dimethylated Casein (NMC) and 16 μM K×D (used for all transglutaminase assays) in 25 mM Hepes, pH 7.4, 250 mM NaCl, 2 mM MgCl2, 0.5 mM CaCl2, 0.2 mM DTT, 0.05% Pluronic F-127 at 37° C. A time point was taken with a microplate reader (Safire or Ultra, Tecan; ex: 350 nm, em: 535 nm) every 3 minutes for up to 2 hours and the initial linear reaction progress was used to determine the reaction velocity as a measure for enzyme activity. Assay conditions were identical for human TG6 and similar for human TG1 and mouse TG2 apart from enzyme concentration (mTG2 at 5 nM; TG1 at 10 nM) and CaCl2 concentration (0.2 mM for mTG2; 0.05 mM for TG1). Factor XIIIa was activated using 0.1 μg/μl thrombin (Sigma) in 35 mM Tris pH 8.0 for 20 min at 30° C. and the transamidation reaction was performed with 20 nM Factor XIIIa in 50 mM Tris pH 8.0, 1.25 mM CaCl2, 0.05% Pluronic, 0.2 mM DTT. TG3 was activated with 0.02 μg/μl thrombin under the same conditions as Factor XIIIa and assay conditions were 10 nM TG3 in 50 mM Hepes, pH 8, 20 mM CaCl2, 0.2 mM DTT, 0.05% Pluronic F-127.

The mark [5] stands for this setting: mouse plasma, 1 μM, 37° C., read-out: Mouse Plasma T1/2.
Setting [6] is: read-out: half-life in mouse plasma.
[7] abbreviates: human plasma, 1 μM, 37° C., read-out: Human Plasma T1/2.
The mark [8] stands for this setting: read-out: half-life in human plasma.
The mark [9] stands for this setting: Table 7, 20 nM TG2, 37° C., read-out: IC50.

Like-named read-outs stand apart in the source and are kept apart here.

T1 sequence (P08183 whole entry): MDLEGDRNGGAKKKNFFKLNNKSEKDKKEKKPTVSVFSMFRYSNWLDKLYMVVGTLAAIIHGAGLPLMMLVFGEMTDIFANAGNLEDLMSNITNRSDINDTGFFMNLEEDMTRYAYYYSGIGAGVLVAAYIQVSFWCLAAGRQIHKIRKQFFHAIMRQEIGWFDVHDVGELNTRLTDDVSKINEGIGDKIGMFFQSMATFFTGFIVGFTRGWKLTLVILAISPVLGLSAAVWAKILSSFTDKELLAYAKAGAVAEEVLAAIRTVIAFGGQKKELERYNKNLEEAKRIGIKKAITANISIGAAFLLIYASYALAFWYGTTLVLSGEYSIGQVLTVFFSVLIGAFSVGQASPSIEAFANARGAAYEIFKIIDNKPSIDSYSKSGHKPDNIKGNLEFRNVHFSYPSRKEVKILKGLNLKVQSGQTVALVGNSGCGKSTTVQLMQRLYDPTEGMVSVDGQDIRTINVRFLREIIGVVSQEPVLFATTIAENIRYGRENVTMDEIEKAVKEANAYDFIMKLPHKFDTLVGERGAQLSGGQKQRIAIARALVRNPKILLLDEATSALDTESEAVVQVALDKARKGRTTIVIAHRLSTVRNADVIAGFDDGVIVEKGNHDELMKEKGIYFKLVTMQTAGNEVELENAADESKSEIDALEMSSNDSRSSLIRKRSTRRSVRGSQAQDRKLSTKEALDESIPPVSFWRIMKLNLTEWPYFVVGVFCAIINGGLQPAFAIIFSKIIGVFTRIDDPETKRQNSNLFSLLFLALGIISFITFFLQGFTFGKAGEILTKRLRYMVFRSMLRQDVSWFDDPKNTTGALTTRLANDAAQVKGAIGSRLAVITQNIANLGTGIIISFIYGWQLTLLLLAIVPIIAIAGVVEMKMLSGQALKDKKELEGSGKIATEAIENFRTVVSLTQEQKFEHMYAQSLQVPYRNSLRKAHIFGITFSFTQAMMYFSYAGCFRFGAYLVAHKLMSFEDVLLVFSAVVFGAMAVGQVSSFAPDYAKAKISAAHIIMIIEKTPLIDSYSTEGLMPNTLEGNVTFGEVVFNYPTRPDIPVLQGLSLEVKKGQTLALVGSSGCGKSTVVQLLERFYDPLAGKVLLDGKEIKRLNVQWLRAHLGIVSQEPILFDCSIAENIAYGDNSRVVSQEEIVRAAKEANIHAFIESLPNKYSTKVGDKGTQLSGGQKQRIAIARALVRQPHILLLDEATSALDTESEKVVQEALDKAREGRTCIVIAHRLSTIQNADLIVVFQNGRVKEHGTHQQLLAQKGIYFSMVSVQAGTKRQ

For the compound `C=CC(=O)NCCCC[C@H](NC(=O)Cc1ccccc1)C(=O)N1CCN(c2cccc(C)n2)CC1` [compound 2, N-[(5S)-6-[4-(6-methylpyridin-2-yl)piperazin-1-yl]-6-oxo-5-(2-phenylacetamido)hexyl]prop-2-enamide], the half-life at 1 μM in “Plasma stability (mouse)” (setting [5]) is more than 480 min; in “Plasma stability (mouse)” (setting [6]), more than 1440 min; in the data set “Plasma stability (human)” (setting [7]) it was more than 480 min; in “Plasma stability (human)” (setting [8]), more than 1440 min. In addition, the permeability result in [1] is listed as “good permeability”. Further, in data set [2], the Papp A→B at 10 μM is 30.3 ×10⁻⁶ cm/s. In addition, the “metabolic stability in liver microsomal stability testing” value is recorded as “poor” in data set [3] and “poor” in [4] (mouse, in words). Also, the microsomal CLint at 1 μM in data set [3] was more than 1390 µL/min/mg; in [4] (pooled liver microsomes, pH 7.4, mouse liver microsomes, 1 μM, 0.25 mg protein/mL, NADPH, read-out: mLM Clint) it was more than 1390 µL/min/mg. Moreover, at P-glycoprotein (P-gp), the “active efflux via P-gp” value is listed as “high active efflux”. In addition, the “MDCK-MDR1 EER” value at P-glycoprotein (P-gp) stood at 7.1. Besides, the “solubility in a kinetic solubility assay” value in the data set “kinetic solubility assay” was “good solubility”. Besides, the “Aq. Sol.” value in the data set “kinetic solubility assay” is 0.06 mg/mL. Besides, the IC50 at human TG2 (setting [9]) is less than 100 nM; at human TG2 (Table 8, read-out: TG2 IC50) it was 60 nM.

With `C=CC(=O)NCCCC[C@H](NC(=O)OCc1ccccc1)C(=O)N1CCN(c2ccccc2Cl)CC1` [compound 1, benzyl N-[(2S)-1-[4-(2-chlorophenyl)piperazin-1-yl]-1-oxo-6-(prop-2-enamido)hexan-2-yl]carbamate], the half-life at 1 μM in the data set “Plasma stability (mouse)” (setting [5]), in the data set “Plasma stability (mouse)” (setting [6]), in “Plasma stability (human)” (setting [7]) and in “Plasma stability (human)” (setting [8]) was more than 1440 min throughout. The permeability entry in data set [1] is listed as “good permeability”. For the same compound, the Papp A→B at 10 μM in data set [2] was 14.2 ×10⁻⁶ cm/s. For the same compound, in [3], the “metabolic stability in liver microsomal stability testing” value is reported as “poor”. The microsomal CLint at 1 μM in data set [3] is more than 1390 µL/min/mg. Also, the “active efflux via P-gp” value on P-glycoprotein (P-gp) is “high active efflux”. For the same compound, on P-glycoprotein (P-gp), the “MDCK-MDR1 EER” value is recorded as 118. Also, the “solubility in a kinetic solubility assay” value in the data set “kinetic solubility assay” is recorded as “good solubility”. In “kinetic solubility assay”, the “Aq. Sol.” value is 0.87 mg/mL. Moreover, the IC50 at human TG2 (setting [9]) was less than 100 nM; at human TG2 (Table 8, read-out: TG2 IC50) it was 14 nM.
